Reference: ChEMBL document CHEMBL1201862, “PubChem BioAssay data set” (2004)
Calls of active or inactive are those of the source.

Columns and labels:
[1] = nonselective StAR promoter luciferase inhibitors – cell-based, luminescence, luciferase reporter, counter-screen for LRH-1 inverse agonist project, dose response (AID 651969); type: functional
[2] = biological target: Nuclear receptor subfamily 5 group A member 2 (Homo sapiens, UniProt O00482); type: functional, cell-based;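 further: HEK293T cells transfected with LRH-1 and a StAR promoter luciferase reporter; potency for inhibitors that lower LRH-1 driven reporter light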
Steroidogenic factor 1 = Steroidogenic factor 1 (Homo sapiens, UniProt Q13285); assay: Counterscreen for inverse agonists of the liver receptor homolog-1 (LRH-1; NR5A2): Luminescence-based cell-based high throughput dose response assay to identify inverse agonists of the Steroidogenic Factor 1 Nuclear Receptor (SF1; NR5A1).; type: functional
[3] = blockers of CRF-binding protein–CRF-R2 complex – cell-based, uHTS hits, 384-well, dose response (AID 651639); type: functional, Homo sapiens; conditions: read-out: IC50_Mean
[4] = biological target: T1, Corticotropin-releasing factor receptor 2/Corticotropin-releasing factor-binding protein (Homo sapiens, UniProt P24387+Q13324); assay: activators of CRF receptor 2 with binding protein – uHTS hits, confirmation (AID 602473); type: functional; conditions: read-out: EC50_Mean
T1 sequence (Q13324 whole entry): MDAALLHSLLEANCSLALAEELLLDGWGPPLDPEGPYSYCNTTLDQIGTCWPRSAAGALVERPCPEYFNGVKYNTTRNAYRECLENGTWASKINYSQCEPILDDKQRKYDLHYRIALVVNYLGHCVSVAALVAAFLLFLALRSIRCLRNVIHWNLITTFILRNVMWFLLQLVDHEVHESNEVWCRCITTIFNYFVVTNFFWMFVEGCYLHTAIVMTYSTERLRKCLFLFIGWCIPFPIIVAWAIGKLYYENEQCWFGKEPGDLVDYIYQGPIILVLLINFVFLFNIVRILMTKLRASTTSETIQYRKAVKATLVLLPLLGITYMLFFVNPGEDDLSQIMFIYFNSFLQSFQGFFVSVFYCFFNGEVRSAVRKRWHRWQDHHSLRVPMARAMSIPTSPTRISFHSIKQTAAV
T1 sequence (P24387 whole entry): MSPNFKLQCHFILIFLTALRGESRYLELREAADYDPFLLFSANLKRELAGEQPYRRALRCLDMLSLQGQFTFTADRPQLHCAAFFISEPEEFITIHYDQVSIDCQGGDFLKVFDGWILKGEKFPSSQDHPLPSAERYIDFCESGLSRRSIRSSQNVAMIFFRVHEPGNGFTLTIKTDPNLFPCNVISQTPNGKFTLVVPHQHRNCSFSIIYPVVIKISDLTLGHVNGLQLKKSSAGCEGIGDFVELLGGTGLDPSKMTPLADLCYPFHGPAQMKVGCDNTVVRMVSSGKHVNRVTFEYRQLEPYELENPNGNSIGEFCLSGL

[5] = biological target: T1, Corticotropin-releasing factor receptor 2/Corticotropin-releasing factor-binding protein; assay: Dose Response confirmation of uHTS hits for small molecule antagonists of the CRF-binding protein and CRF-R2 receptor complex.; type: functional; conditions: read-out: IC50_Mean
[6] = biological target: T2, Small ubiquitin-related modifier 1 (Homo sapiens, UniProt P63165); assay: SUMO1 protein interaction blockers, potency – biochemical, fluorescence polarization, uHTS hits, dose response (AID 624382); type: functional; conditions: read-out: IC50_Mean
[7] = biological target: T2, Small ubiquitin-related modifier 1; assay: SUMO1 protein-protein binding blockers, potency – biochemical, FRET, dose response (AID 624383); type: functional; conditions: read-out: IC50_Mean
[8] = biological target: T3, Rac GTPase-activating protein 1 (Homo sapiens, UniProt Q9H0H5); assay: blockers of MgcRacGAP-driven Rac1 GTP hydrolysis – biochemical, ADP Hunter fluorescence, primary and confirmatory, confirmation (AID 624330); type: functional
T3 sequence (Q9H0H5 whole entry): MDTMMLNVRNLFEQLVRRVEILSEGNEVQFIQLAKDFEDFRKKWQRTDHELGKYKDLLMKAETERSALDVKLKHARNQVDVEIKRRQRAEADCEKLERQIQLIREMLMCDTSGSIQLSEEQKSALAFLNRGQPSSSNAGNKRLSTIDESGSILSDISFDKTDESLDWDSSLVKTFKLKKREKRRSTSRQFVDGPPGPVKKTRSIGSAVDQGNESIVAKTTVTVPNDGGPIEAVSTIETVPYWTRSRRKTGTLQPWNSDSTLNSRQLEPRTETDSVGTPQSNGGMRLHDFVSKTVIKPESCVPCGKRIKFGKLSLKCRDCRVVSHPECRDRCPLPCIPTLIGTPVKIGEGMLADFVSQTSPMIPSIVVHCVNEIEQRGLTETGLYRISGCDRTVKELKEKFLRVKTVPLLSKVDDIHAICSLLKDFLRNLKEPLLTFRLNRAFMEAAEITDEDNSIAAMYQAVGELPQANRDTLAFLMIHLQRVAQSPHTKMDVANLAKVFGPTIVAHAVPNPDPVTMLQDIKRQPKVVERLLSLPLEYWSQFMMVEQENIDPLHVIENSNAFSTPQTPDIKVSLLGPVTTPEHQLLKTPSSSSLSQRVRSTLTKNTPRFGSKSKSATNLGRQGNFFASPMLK

[9] = viability loss in HeLa cells – cytotoxicity control for MgcRacGAP inhibitor project, dose response (AID 624300); type: functional
[10] = biological target: T4, Sentrin-specific protease 1 (Homo sapiens, UniProt Q9P0U3); assay: Dose response confirmation of small molecule inhibitors of the catalytic domain of the SUMO protease, SENP1 in a FRET assay.; type: functional; conditions: read-out: IC50_Mean
T4 sequence (Q9P0U3 whole entry): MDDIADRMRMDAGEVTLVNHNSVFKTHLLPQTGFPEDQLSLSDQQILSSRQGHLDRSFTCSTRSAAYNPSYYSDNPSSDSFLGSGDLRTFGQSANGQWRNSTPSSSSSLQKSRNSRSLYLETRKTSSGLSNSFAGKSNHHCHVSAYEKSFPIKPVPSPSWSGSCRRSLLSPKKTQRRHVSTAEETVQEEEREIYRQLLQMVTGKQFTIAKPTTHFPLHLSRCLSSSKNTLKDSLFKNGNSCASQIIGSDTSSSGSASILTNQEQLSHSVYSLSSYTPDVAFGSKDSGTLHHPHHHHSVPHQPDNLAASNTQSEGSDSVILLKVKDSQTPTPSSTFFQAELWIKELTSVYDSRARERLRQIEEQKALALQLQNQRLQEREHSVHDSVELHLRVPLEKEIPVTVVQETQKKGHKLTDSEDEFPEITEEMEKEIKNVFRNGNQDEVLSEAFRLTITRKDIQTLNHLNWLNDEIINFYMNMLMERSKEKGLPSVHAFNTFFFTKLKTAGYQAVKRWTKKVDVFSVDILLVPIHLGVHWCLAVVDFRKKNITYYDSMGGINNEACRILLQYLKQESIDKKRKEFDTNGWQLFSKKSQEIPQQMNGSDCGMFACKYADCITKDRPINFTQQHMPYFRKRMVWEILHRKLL

[11] = biological target: T4, Sentrin-specific protease 1; assay: SENP1 catalytic domain blockers, concentration series – biochemical, kinetic FRET, dose response (AID 651697); type: functional; conditions: read-out: IC50_Mean
[12] = alpha-synuclein stem-loop luciferase translation blockers – H4 neuroglioma cells, luminescence, confirmation (AID 1988); type: functional, cell-based
Vero [13] = assay: cells; type: functional; conditions: Chlorocebus sabaeus
[14] = biological target: T5, Ubiquitin-conjugating enzyme E2 N (Homo sapiens, UniProt P61088); type: functional;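 further: Dose-response confirmation in a TR-FRET assay detecting UBC13-driven polyubiquitin chain formation, inhibition measured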
T5 sequence (P61088 whole entry): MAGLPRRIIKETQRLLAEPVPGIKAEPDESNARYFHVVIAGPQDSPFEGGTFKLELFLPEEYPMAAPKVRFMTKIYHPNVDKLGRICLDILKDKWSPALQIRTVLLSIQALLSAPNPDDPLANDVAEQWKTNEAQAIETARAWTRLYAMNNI

[15] = biological target: 26S proteasome non-ATPase regulatory subunit 14 (Homo sapiens, UniProt O00487); assay: inhibition of proteasome subunit RPN11 – biochemical, fluorescence polarization, uHTS hits, confirmation (AID 602368); type: functional
[16] = Luminescence Cell-Based Dose Response HTS to Identify Inhibitors of 5'UTR Stem-Loop Driven Prion Protein mRNA Translation in H4 Neuroglioblastoma Cells. [Related pubchem assays: 1827 (Project Summary), 1813 (Primary HTS)]; type: functional
[17] = biological target: 72 kDa type IV collagenase (Homo sapiens, UniProt P08253); assay: Dose Response validation of uHTS RPN11 inhibitor hits using a MMP-2 Fluorescence assay.; type: functional
Prothrombin = Prothrombin (Bos taurus, UniProt P00735); assay: thrombin protease inhibitors – biochemical, fluorescence polarization, uHTS hits, dose response (AID 602369); type: functional
[18] = luciferase reporter signal suppression in cells – H4 neuroglioma cells, luminescence, dose response (AID 1990); type: functional, cell-based
Leucine aminopeptidase = biological target: T6, Leucine aminopeptidase (Plasmodium falciparum 3D7, UniProt Q8IL11); assay: P. falciparum M17LAP inhibitors, primary screen, biochemical, fluorogenic H-Leu-NHMec substrate, 1536-well (AID 1619); type: functional
T6 sequence (Q8IL11 whole entry): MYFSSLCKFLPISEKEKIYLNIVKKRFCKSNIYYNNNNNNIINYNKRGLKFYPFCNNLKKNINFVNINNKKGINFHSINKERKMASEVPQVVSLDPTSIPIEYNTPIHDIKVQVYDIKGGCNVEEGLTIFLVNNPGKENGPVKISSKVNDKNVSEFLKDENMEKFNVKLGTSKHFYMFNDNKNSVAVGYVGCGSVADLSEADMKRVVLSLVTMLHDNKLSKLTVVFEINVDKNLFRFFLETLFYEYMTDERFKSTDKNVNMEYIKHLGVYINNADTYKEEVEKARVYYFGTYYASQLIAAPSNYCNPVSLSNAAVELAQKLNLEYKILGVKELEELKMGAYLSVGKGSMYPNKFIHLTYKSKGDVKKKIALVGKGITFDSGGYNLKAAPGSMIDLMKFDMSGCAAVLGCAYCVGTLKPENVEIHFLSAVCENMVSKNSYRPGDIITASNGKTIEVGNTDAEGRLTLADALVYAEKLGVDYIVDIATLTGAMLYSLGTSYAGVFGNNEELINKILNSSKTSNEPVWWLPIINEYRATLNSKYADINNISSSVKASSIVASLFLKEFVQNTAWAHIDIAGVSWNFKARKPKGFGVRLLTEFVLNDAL

Vero [19] = assay: viability of Vero cells under compound – cytotoxicity control for flavivirus capping enzyme inhibitors (AID 588742); type: functional; conditions: Chlorocebus sabaeus
Genome polyprotein = Genome polyprotein (dengue virus type 2, UniProt P29990); assay: flavivirus cap methylation enzyme inhibition – biochemical, confirmation dose response, primary screen (AID 588689); type: functional
[20] = biological target: Photoreceptor-specific nuclear receptor (Homo sapiens, UniProt Q9Y5X4); type: functional, cell-based;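 further: CHO-S cells with Gal4-NCOR and VP16-NR2E3 two-hybrid luciferase reporter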
HEK293 [21] = assay: NOD2 signaling inhibitors in MDP-stimulated cells, cell-based, uHTS, luminescence (AID 2001); type: functional; conditions: Homo sapiens
HEK293 [22] = assay: cells; type: functional, cell-based; conditions: Homo sapiens
HEK293 [23] = assay: cells; type: functional, cell-based; conditions: Homo sapiens; remark: listed apart in the source
HEK293 [24] = assay: inhibition of NOD1-driven NF-kB reporter – cell-based, luminescence, uHTS, primary screen (AID 1578); type: functional; conditions: Homo sapiens

T2 sequence (P63165 whole entry): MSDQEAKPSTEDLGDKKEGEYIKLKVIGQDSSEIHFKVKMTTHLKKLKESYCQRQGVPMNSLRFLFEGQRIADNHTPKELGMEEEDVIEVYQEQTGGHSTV
Nuclear receptor subfamily 5 group A member 2, sequence (O00482 whole entry): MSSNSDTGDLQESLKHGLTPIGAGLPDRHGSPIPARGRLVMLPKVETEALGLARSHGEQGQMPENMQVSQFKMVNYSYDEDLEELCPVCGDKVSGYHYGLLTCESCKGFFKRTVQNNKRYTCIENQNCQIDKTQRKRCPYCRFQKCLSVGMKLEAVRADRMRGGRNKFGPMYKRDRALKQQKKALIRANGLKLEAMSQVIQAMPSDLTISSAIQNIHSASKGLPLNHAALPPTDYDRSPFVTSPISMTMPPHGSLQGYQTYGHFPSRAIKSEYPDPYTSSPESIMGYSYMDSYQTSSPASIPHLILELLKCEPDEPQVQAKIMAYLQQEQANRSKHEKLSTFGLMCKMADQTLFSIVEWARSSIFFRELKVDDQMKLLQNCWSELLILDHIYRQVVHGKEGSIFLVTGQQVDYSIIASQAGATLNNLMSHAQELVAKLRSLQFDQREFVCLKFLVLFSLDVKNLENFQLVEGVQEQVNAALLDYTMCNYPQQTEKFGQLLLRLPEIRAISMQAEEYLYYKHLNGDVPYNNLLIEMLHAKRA
Steroidogenic factor 1, sequence (Q13285 whole entry): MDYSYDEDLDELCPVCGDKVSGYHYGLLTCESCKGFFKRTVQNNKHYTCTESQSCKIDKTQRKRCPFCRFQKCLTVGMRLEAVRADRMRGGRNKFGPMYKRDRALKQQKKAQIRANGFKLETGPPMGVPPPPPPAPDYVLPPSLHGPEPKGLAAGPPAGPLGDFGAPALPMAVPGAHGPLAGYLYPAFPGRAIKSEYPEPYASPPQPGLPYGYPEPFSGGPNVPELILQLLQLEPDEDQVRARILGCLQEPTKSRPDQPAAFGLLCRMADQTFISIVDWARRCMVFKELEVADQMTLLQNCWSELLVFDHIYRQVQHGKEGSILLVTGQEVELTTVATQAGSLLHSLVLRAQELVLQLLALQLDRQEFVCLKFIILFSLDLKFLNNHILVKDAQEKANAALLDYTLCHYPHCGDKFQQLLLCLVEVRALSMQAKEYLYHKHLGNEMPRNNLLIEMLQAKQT
72 kDa type IV collagenase, sequence (P08253 whole entry): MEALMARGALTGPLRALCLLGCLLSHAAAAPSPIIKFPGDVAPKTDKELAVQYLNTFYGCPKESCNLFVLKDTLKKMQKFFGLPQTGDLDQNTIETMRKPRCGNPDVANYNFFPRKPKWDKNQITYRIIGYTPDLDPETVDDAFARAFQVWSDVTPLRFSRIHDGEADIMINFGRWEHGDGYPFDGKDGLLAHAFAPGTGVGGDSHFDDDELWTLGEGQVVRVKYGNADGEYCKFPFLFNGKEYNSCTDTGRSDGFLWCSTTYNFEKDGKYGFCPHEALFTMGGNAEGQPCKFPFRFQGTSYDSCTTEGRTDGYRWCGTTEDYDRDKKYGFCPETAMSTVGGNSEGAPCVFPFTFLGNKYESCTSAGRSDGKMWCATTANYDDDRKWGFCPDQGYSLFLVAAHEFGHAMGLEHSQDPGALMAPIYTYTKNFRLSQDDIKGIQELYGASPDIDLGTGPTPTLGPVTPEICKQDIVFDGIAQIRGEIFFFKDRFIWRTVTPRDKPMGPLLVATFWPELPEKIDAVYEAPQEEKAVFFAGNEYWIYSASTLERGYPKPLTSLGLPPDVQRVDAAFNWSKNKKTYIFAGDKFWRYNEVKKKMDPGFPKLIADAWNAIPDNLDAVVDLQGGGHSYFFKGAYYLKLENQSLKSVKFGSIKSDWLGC
26S proteasome non-ATPase regulatory subunit 14, sequence (O00487 whole entry): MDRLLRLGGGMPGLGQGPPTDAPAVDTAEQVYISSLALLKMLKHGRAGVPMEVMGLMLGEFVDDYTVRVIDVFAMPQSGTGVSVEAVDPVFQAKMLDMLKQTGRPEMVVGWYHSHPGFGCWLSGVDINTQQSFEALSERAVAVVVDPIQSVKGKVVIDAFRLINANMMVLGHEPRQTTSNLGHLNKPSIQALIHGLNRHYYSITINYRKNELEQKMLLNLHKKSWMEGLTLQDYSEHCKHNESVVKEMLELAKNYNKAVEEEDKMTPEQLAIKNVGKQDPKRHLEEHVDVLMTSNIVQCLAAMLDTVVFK
Genome polyprotein, sequence (P29990 2492-3391 limits assumed): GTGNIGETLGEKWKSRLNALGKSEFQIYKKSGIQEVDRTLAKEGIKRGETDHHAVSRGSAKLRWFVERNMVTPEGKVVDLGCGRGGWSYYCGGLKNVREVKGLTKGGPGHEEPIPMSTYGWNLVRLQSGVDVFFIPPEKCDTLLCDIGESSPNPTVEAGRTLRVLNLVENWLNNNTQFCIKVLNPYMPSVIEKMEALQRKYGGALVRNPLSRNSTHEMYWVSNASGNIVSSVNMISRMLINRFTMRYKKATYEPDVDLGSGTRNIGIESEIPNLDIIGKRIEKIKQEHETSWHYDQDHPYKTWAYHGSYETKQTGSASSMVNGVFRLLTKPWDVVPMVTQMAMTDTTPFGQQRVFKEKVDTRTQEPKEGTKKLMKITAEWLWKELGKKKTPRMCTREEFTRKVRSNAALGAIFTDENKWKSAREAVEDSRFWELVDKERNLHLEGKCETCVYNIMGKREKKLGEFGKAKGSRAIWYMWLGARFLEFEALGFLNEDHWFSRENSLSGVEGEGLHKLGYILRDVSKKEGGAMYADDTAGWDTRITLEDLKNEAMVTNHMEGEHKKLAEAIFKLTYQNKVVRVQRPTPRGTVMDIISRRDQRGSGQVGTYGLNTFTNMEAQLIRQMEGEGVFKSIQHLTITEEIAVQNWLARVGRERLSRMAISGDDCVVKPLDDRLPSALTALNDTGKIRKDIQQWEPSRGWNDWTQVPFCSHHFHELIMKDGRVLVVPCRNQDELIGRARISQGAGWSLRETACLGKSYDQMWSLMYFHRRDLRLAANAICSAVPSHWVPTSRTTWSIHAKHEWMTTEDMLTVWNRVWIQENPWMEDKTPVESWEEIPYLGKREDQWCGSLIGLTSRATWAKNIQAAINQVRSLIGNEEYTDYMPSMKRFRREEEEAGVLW
Photoreceptor-specific nuclear receptor, sequence (Q9Y5X4 whole entry, the tested form may be a part): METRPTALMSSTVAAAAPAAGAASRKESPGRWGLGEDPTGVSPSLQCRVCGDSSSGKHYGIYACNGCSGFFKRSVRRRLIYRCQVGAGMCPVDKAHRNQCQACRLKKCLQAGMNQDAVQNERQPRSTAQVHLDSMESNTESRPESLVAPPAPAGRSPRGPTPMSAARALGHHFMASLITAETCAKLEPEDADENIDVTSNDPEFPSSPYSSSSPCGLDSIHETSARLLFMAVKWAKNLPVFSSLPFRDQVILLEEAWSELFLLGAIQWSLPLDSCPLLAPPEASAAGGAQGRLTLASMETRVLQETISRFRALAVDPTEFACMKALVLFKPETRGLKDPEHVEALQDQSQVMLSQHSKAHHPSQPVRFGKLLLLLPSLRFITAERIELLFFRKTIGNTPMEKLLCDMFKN

COc1cccc(C(=O)COc2cccc(NC(=O)c3cccc([N+](=O)[O-])c3)c2)c1
IC50 [1]: 10.9 µM (inactive)
IC50 [2]: 0.443 µM (active)
IC50 (Steroidogenic factor 1): 0.443 µM (active)

Cc1ccccc1Cn1nc(C)c(NC(=O)c2cc(-c3cccs3)on2)c1C
IC50 [3]: > 20 µM (inactive)
EC50 [4]: > 53 µM (inactive)
IC50 [5]: 39.1 µM (active)

COC(=O)c1ccc(NC(=O)CSc2nn3c(=O)c(C)nnc3s2)cc1
IC50 [1]: 35.9 µM (inactive)
IC50 [2]: 35.9 µM (inactive)
IC50 (Steroidogenic factor 1): 35.9 µM (inactive)

Cc1ccc(S(=O)(=O)N2CCOCC2)cc1C(=O)OCC(=O)Nc1ccc2[nH]c(O)nc2c1
IC50 [6]: > 66.6 µM (inactive)
IC50 [7]: 11.4 µM (active)

CCOc1cc(/C=C2\C(=O)N(CCc3ccc(OC)c(OC)c3)C(C)=C2C(=O)OC)ccc1O
IC50 [8]: 118 µM (active)
CC50 [9]: 100 µM (active)

COc1cccc(C2(c3cccc(OC)c3)CC2C(=O)Nc2ccccc2Cl)c1 (stereo unspecified)
IC50 [3]: > 20 µM (inactive)
EC50 [4]: > 53 µM (inactive)
IC50 [5]: 3.83 µM (active)

COc1cc(/C=C2\SC(=S)N(CC(=O)O)C2=O)ccc1OC(=O)c1ccco1
IC50 [10]: 7.29 µM (active)
IC50 [11]: 4.52 µM (active)

COc1ccccc1NN=C1C(=O)NC(=S)NC1=O
IC50 [10]: 18 µM (active)
IC50 [11]: 23.3 µM (inactive)

CN1CCc2c(sc3c2C(=O)NC(c2cn(Cc4ccccc4)c4ccccc24)N3)C1 (stereo unspecified)
EC50 [12]: 5.25 µM (active)
CC50 (Vero [13]): 17.1 µM (active)
IC50 [14]: > 20 µM (inactive)
IC50 [15]: 23.4 µM (active)
EC50 [16]: 8.12 µM (active)
IC50 [17]: > 100 µM (inactive)
IC50 (Prothrombin): 16 µM (active)
EC50 [18]: 8.71 µM (active)

O=C(NCC1CCCO1)c1sc(=S)n2c1[nH]c(=O)c1ccc(C(=O)N3CCCCC3)cc12 (stereo unspecified)
IC50 (Leucine aminopeptidase): 65.4 µM (active)
IC50 [10]: 21.1 µM (inactive)
IC50 [11]: 51.1 µM (inactive)

Cc1ccc(S(=O)(=O)N2[C@@H](c3ccc(Br)cc3)C(C(=O)O)=CC[C@H]2c2ccc(Cl)c(Cl)c2)cc1
CC50 (Vero [19]): > 40 µM (active)
IC50 [6]: > 66.6 µM (inactive)
IC50 (Genome polyprotein): 42.9 µM (active)
IC50 [7]: 6.25 µM (active)
IC50 [20]: 5.2 µM (active)

CCCc1nnc(SCC(=O)Nc2ccc(OC)cc2)o1
IC50 [1]: 35.9 µM (inactive)
IC50 [2]: 6.68 µM (active)
IC50 (Steroidogenic factor 1): 15.5 µM (inactive)

C/C(=N\NC(=O)c1cc(Cl)ccc1O)c1ccc(Br)s1
IC50 [3]: > 20 µM (inactive)
EC50 [4]: > 53 µM (inactive)
IC50 (HEK293 [21]): 6.21 µM (inactive)
IC50 (HEK293 [22]): 5.47 µM (active)
IC50 (HEK293 [23]): > 20 µM (inactive)
EC50 (HEK293 [24]): 1.93 µM (active)
IC50 [5]: < 0.368 µM (active)
